{
  "source": "paper PMC9285603",
  "about": "“Flavan‐3‐ol Microbial Metabolites Modulate Proteolysis in Neuronal Cells Reducing Amyloid‐beta (1‐42) Levels” (Molecular Nutrition & Food Research, 2021)",
  "key": {"Aβ(1‐42)": {"system": "Aβ(1‐42)", "experiment": "Quantification of Aβ(1‐42) by ELISA in medium and cellular extracts", "type": "cell-based, human", "conditions": "APPwt cells, 24 h, 5 µM", "experimental": "Levels of Aβ(1‐42) secreted into the medium and present in cellular extracts were determined after PVLs treatment using the Human Aβ42 solid‐phase sandwich ELISA Kit from Invitrogen, following the manufacturer's instructions. For Aβ quantification in cell medium, culture medium was collected after neuronal cells treatment, centrifuged at 300 × g for 10 min to remove non adherent cells and debris and then treated with protease inhibitors."}, "20S immunoproteasome": {"molecular_target": "T1, 20S immunoproteasome (Bos taurus, UniProt Q3SZC2+Q3T0T1+Q3T112)", "T1 construct": "isolated constitutive and immunoproteasomes purified from bovine brain and thymus, respectively; from tissue; host or cells: bovine thymus", "experiment": "In vitro activity assays on isolated immunoproteasome (fluorogenic peptides)", "type": "biochemical", "conditions": "isolated 20S from bovine thymus", "experimental": "(§1) PVLs effects on the 20S constitutive and immunoproteasome peptidase activities were measured through in vitro assays performed with fluorogenic peptides as substrates. Isolation and purification of the 20S proteasome from bovine brain and thymus were performed as previously reported.^[ [23] ^] The incubation mixture contained the compound at concentrations ranging from 0.0 to 10 µM, 1 µg of the isolated 20S proteasome, the appropriate substrate (5 µM final concentration), and 50 mm Tris/HCl (pH 8.0), up to a final volume of 100 µL. Purified proteasomes were always preincubated with each compound at 37°C for 30 min before the fluorogenic peptide substrates were added to the reaction mixture. Final incubation was performed at 37°C, and after 60 min the fluorescence of the hydrolyzed 7‐amino‐4‐methyl‐coumarin (AMC) and 4‐aminobenzoic acid (pAB) was detected (AMC, λexc = 365 nm, λem = 449 nm; pAB, λexc = 304 nm, λem = 664 nm) on a SpectraMax Gemini XPS microplate reader.\n(§2) PVLs were first tested on isolated constitutive and immunoproteasomes purified from bovine brain and thymus, respectively. The constitutive 20S proteasome is a barrel‐shaped complex of four stacked rings, made of seven α subunits in the two outer rings and seven β subunits in the two inner rings, the latter bearing the catalytically active sites in the β1, β2, and β5 subunits. Treatment with inflammatory cytokines induces the transcription of three additional active subunits, known as β1i, β2i, and β5i, that replace constitutive homologues during proteasome assembly.^[ [28] ^] Proteasome proteolytic activities depend on the hydroxyl group of the N‐terminal threonine (Thr‐1) residue, responsible for cleaving peptides through a nucleophilic attack.^[ [29] ^]"}, "26S proteasome": {"molecular_target": "T2, 26S proteasome (Homo sapiens, UniProt P28074)", "T2 construct": "ChT‐L activity of the 26S proteasome measured in control and transfected SH‐SY5Y cells; endogenous in cells; host or cells: SH-SY5Y (control, APPwt- and APPmut-transfected)", "T2 sequence (P28074 60-263)": "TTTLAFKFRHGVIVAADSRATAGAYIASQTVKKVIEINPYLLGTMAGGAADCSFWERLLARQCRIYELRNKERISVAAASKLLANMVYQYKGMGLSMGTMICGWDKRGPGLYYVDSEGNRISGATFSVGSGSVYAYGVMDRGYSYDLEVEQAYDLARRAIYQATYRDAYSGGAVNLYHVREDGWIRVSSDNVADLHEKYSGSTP", "experiment": "26S proteasome ChT‐L activity in cell lysates (fluorimetric)", "type": "cell-based", "conditions": "cellular lysates, 24‐h exposure; versus untreated cells", "experimental": "Cell viability was evaluated with the 3‐(4,5‐dimethylthiazol‐2‐yl)‐2,5‐diphenyltetrazolium bromide assay (MTT).^[ [25] ^] Upon 6 h and 24 h treatment with increasing concentrations (0‐10 µM) of C1, C2, and C3 dissolved in DMSO, cells were washed in PBS, pH 7.5, and then MTT (final concentration 0.5 mg mL^−1) was added to the culture medium without FBS and incubated for 2 h at 37 °C. The medium was then removed and replaced with 100 µL of DMSO. The optical density was measured at 550 nm in a microtiter plate reader. At least six cultures were utilized for each time point. […] Protein concentration was determined by the method of Bradford using bovine serum albumin (BSA) as standard.^[ [26] ^]\nThe effects on the proteasome system were evaluated through fluorimetric assays, as previously reported,^[ [27] ^] using the following synthetic substrates: Leu‐Leu‐Val‐Tyr‐AMC for ChT‐L, Leu‐Ser‐Thr‐Arg‐AMC for T‐L, Leu‐Leu‐Glu‐AMC for PGPH, and Gly‐Pro‐Ala‐Leu‐Ala‐AMC for BrAAP, whose test is performed with the addition of the aminopeptidase‐N (AP‐N). […] Incubation was performed at 37 °C, and after 60 min, the fluorescence of the hydrolyzed 7‐amino‐4‐methyl‐coumarin (AMC) was recorded (AMC, λexc = 365 nm, λem = 449 nm) on a SpectraMax Gemini XPS microplate reader. […] The fluorescence values of lysates were subtracted of the values of control assays in the presence of the two inhibitors."}, "LC3II and p62": {"system": "LC3II and p62", "experiment": "Western blot of autophagy markers (LC3II, p62)", "type": "cell-based, human", "conditions": "APPmut cells, 6 h", "experimental": "(§3) Cell viability was evaluated with the 3‐(4,5‐dimethylthiazol‐2‐yl)‐2,5‐diphenyltetrazolium bromide assay (MTT).^[ [25] ^] Upon 6 h and 24 h treatment with increasing concentrations (0‐10 µM) of C1, C2, and C3 dissolved in DMSO, cells were washed in PBS, pH 7.5, and then MTT (final concentration 0.5 mg mL^−1) was added to the culture medium without FBS and incubated for 2 h at 37 °C. The medium was then removed and replaced with 100 µL of DMSO. The optical density was measured at 550 nm in a microtiter plate reader. At least six cultures were utilized for each time point. Neuroblastoma cells, control and transfected cells, were then treated with C1, C2, and C3 for 6 and 24 h at the concentrations 0–1–5 µM. Compounds were dissolved in DMSO and then added to cell culture media. Control cells were included in each time point. After removing the medium and washing with cold phosphate buffered saline (PBS), cells were harvested in 4 mL of PBS and centrifuged at 1600 × g for 5 min. The pellet was resuspended in lysis buffer (20 mM Tris, pH 7.4, 250 mM sucrose, 1 mM EDTA, and 5 mM β‐mercaptoethanol) and passed through a 29‐gauge needle at least ten times. Lysates were centrifuged at 12 000×g for 15 min and the supernatants were stored at ‐80°C until use. Protein concentration was determined by the method of Bradford using bovine serum albumin (BSA) as standard.^[ [26] ^]\nProteins were resolved on SDS–PAGE and electroblotted onto PVDF membranes. Membranes with transferred proteins were incubated with the primary monoclonal antibody and successively with the specific peroxidase conjugated secondary antibody. Monoclonal antibodies against Ub and p27 were obtained from Santa Cruz Biotechnology, Inc. (Heidelberg, Germany). SQSTM1/p62 (sequestosome 1, herein p62) mouse monoclonal antibody was from Sigma‐Aldrich S.r.L. (Milano, Italy) and the anti‐LC3B antibody was purchased from Cell Signaling Technology, Inc. The immunoblot detection was performed with ECL Western blotting detection reagents using a ChemiDoc MP system. […] Immunoblot images were quantified using ImageJ 1.52p software (NIH, USA)."}, "[1]": {"molecular_target": "T3, constitutive 20S proteasome (Bos taurus, UniProt Q2TBP0+Q32KL2+Q3MHN0)", "T3 construct": "isolated constitutive and immunoproteasomes purified from bovine brain and thymus, respectively; from tissue; host or cells: bovine brain", "experiment": "In vitro activity assays on isolated constitutive 20S proteasome (fluorogenic peptides)", "type": "biochemical", "conditions": "isolated 20S from bovine brain", "experimental": "as §1, §2"}, "Cathepsin B": {"molecular_target": "T4, Cathepsin B (Homo sapiens, UniProt P07858)", "T4 construct": "The mixture for cathepsin B, containing 1 µg of cell lysate; endogenous in cells; host or cells: SH-SY5Y (control, APPwt- and APPmut-transfected)", "experiment": "Cathepsin B activity in cell lysates (Z‐Arg‐Arg‐AMC)", "type": "cell-based", "conditions": "APPmut cells, 6 h treatment", "experimental": "as §3\nCathepsin B proteolytic activity was measured using the fluorogenic peptide Z‐Arg‐Arg‐AMC at a final concentration of 50 µM, as previously described.^[ [24] ^] The mixture for cathepsin B, containing 1 µg of cell lysate, was pre‐incubated in 100 mM phosphate buffer pH 6.0, 1 mM EDTA, and 2 mM dithiothreitol for 5 min at 30°C. Upon the addition of the substrate, the mixture was incubated for 15 min at 30°C. The fluorescent signal released by the hydrolyzed 7‐amino‐4‐methyl‐coumarin (AMC, λexc = 365 nm, λem = 449 nm) was detected on a SpectraMax Gemini XPS microplate reader."}, "[2]": {"system": "ubiquitin‐protein conjugates and p27", "experiment": "Western blot of proteasome substrates (ubiquitin‐protein conjugates, p27)", "type": "cell-based, human", "experimental": "as §3\nProteins were resolved on SDS–PAGE and electroblotted onto PVDF membranes. Membranes with transferred proteins were incubated with the primary monoclonal antibody and successively with the specific peroxidase conjugated secondary antibody. Monoclonal antibodies against Ub and p27 were obtained from Santa Cruz Biotechnology, Inc. (Heidelberg, Germany). SQSTM1/p62 (sequestosome 1, herein p62) mouse monoclonal antibody was from Sigma‐Aldrich S.r.L. (Milano, Italy) and the anti‐LC3B antibody was purchased from Cell Signaling Technology, Inc. The immunoblot detection was performed with ECL Western blotting detection reagents using a ChemiDoc MP system. Each gel was loaded with molecular weight markers in the range of 12 to 225 kDa (GE Healthcare). Glyceraldehyde‐3‐phosphate dehydrogenase (GAPDH) was utilized as a control for equal protein loading: membranes were stripped and re‐probed with anti‐GAPDH monoclonal antibody (Santa Cruz Biotechnology, Heidelberg, Germany). Stripping buffer contained 200 mM glycine, 0.1% SDS, and 1% Tween 20. Immunoblot images were quantified using ImageJ 1.52p software (NIH, USA)."}},
  "note": "Read-outs that look alike come from different tables or passages of the source.",
  "data": [
    {"smiles": "O=C1CCC(Cc2ccc(O)cc2)O1", "note": "(centres unmarked) [Compound C1, 5‐(4ʹ‐hydroxyphenyl)‐γ‐valerolactone]", "values": [
      {"measurement": "Aβ(1‐42) levels", "setting": "Aβ(1‐42)", "value": "significantly reduced"},
      {"measurement": "IC50", "setting": "20S immunoproteasome; 30 min preincubation, 37°C, read-out: IC50 ChT‐L Immunoproteasome", "value": "126 ± 11.3", "unit": "nM"},
      {"measurement": "IC50", "setting": "20S immunoproteasome; read-out: IC50 BrAAP Immunoproteasome", "value": "218 ± 19.6", "unit": "nM"},
      {"measurement": "IC50", "setting": "20S immunoproteasome; read-out: IC50 PGPH Immunoproteasome", "value": "41.8 ± 3.8", "unit": "nM"},
      {"measurement": "IC50", "setting": "20S immunoproteasome; read-out: IC50 T‐L Immunoproteasome", "value": "227 ± 13.2", "unit": "nM"},
      {"measurement": "ChT‐L residual activity, 26S proteasome", "setting": "26S proteasome", "value": 30, "unit": "%"},
      {"measurement": "levels of LC3II", "setting": "LC3II and p62", "value": "increased"},
      {"measurement": "IC50", "setting": "[1]; 30 min preincubation, 37°C, read-out: IC50 ChT‐L Constitutive proteasome", "value": "120 ± 12.1", "unit": "nM"},
      {"measurement": "IC50", "setting": "[1]; read-out: IC50 BrAAP Constitutive proteasome", "value": "243 ± 20.1", "unit": "nM"},
      {"measurement": "IC50", "setting": "[1]; read-out: IC50 PGPH Constitutive proteasome", "value": "62.8 ± 58.7", "unit": "nM"},
      {"measurement": "IC50", "setting": "[1]; read-out: IC50 T‐L Constitutive proteasome", "value": "13 ± 2.1", "unit": "nM"},
      {"measurement": "inhibition at 5 µM", "setting": "Cathepsin B", "value": 20, "unit": "%"},
      {"measurement": "levels of Ub‐conjugates and p27", "setting": "[2]; 6 h exposure, control and transfected SH‐SY5Y cells", "value": "no particular effect"},
      {"measurement": "levels of Ub‐conjugates and p27", "setting": "[2]; 24 h treatment, mainly in APPmut cells exposed to C1", "value": "evident increase"}
    ]}
  ]
}
